Here are results for four molecules from article PMC9489722, “Identification and development of a subtype-selective allosteric AKT inhibitor suitable for clinical development” (Scientific Reports, 2022).

Read-outs that look alike come from different tables or passages of the source.

The target in one data set is CYP 2C9 (Homo sapiens, UniProt P11712). The experiment in a line: CYP2C9 inhibition. Format: in vitro ADME.
Data set [1] can be described thus: Pharmacokinetic study in Sprague–Dawley rats. In kind it is in vivo, rat. The note with it: male SD rats. The procedure:
Eight rats were purchased and 6 used on the PK study (3 per administration route). The remaining rats were purchased in case of mis-dosing events and were used to obtain blank biological matrix. Compounds were administered as single i.v. doses at 1 mg free base/kg or single oral doses at 5 mg free base/kg, with blood samples obtained from three rats per dose route, at 9 time-points out to 24 h post-dose. Both the intravenous and oral doses were prepared at a concentration of 1 mg free base/mL in a mixture of 5% DMSO/95% saline. Blood samples were centrifuged to give plasma. Plasma proteins were precipitated, and compounds extracted by addition of six volumes of acetonitrile containing warfarin as internal standard. Samples were centrifuged at 4000 rpm for 30 min and the supernatants were analysed on a Waters Xevo TQ mass spectrometer. Multiple Reaction Monitoring (MRM) methods were developed for each test compound using Waters IntelliStart software.
Quantification of test compounds was by extrapolation from calibration lines prepared in control rat plasma and analysed concurrently with experimental samples.
Non-compartmental analysis was performed using the software package PK Solutions 2.0 from Summit Research Services to produce the PK parameters. AUC values were calculated by the trapezoidal method.
Oral bioavailability was estimated by comparison of the drug concentration/time AUCs for individual animals after oral dosing with the mean AUC from i.v. doses.

A short description of data set [2]: In vitro microsomal stability, rat. In kind it is in vitro ADME. The note with it: pH 7.4; rat liver microsomes; read-out: rat LM CLint. Here is the method:
(§1) Compounds (final concentration = 1 µM; final DMSO concentration = 0.1%) were incubated in 0.1 M phosphate buffer at pH 7.4 with liver microsomes (human, mouse, rat or dog; 0.5 mg of protein/mL) at 37 °C. Reactions were started by addition of NADPH in 0.1 M phosphate buffer pH 7.4 (final concentration 1 mM). Reactions were quenched by addition of ice-cold methanol and frozen. The supernatants were analysed by LC/MS/MS on a Waters Acquity I-Class coupled to a Waters Xevo TQD mass spectrometer. A Waters BEH C18 2.1 × 50 mm 1.7 µm column was used and mobile phases consisted of water and methanol containing 0.1% formic acid as modifier. Analysis was by multiple reaction monitoring and conditions were optimised for each test compound.
Background: Liver microsomes are vesicles of endoplasmic reticulum, rich in cytochrome P450 enzymes.

The subject of data set [3] is pAKT (Ser473) in MCF-7 cells. The experiment in a line: phospho-AKT (S473) ELISA in MCF-7 cells. Format: cell-based. The following applies: Homo sapiens, MCF7, 24h treatment, read-out: EC50 inhibition of phosphorylation of AKT. Here is the method: (§2) Cells were then washed with PBS and lysed. The subsequent supernatant was assayed using a GSK3β (pS9) (Invitrogen, Life Technologies) ELISA. Phospho-AKT levels were detected using the phospho-AKT (S473) immunoassay (R&D Systems) as per manufacturer’s protocol. Percentage inhibition of phosphorylation status was calculated by comparing phospho-AKT levels to total AKT levels with each treatment and IC50 values derived using non-linear regression on GraphPad Prism.
Background: ELISA stands for enzyme-linked immunosorbent assay.

Data set [4] has as its system pAKT^S473 in A549 tumours. The experiment in a line: PK/PD study in A549 lung cancer xenograft model. In kind it is in vivo, mouse. The following applies: single oral dose 100 mg/kg, 24-h time period, A549 xenograft. The procedure: In order to understand the relationship between ALM301 plasma exposure and in vivo AKT target engagement over time, a PK/PD study was carried out in a A549 lung cancer xenograft model. […] ALM301 plasma concentrations and levels of pAKT^S473 in tumours were measured using western blotting and immunohistochemistry (Fig. 4A, B and Supplementary Fig. S4A–C). […] Tumour sections were collected following one dose of either vehicle or 30 mg/kg of ALM301 at noted time intervals (1 h, 2 h, 4 h, 8 h, 24 h). Tissue sections were subsequently stained with pAKT antibody (brown) staining and scored for pAKT staining using a scale of 1–4 (low to high) (Fig. 4B).
For pharmacokinetic/pharmacodynamic (PK/PD) studies in A549 lung cancer xenografts, 150 male BALB/c nude mice aged 6–8 weeks and weighing approximately 18–22 g were inoculated with 1 × 10^7 A549 tumour cells (ATCC) in 0.1 mL of PBS with Matrigel (1:1) subcutaneously into the right flank. Once the mean tumour size reached 150–250 mm^3, the mice were randomised into treatment groups (18 mice per group) using a randomised block design (first, experimental animals are divided into homogeneous blocks according to their initial tumour volume; secondly, within each block, randomisation of animals to treatment groups was conducted so that each animal had the same probability of being assigned to a given treatment, thereby reducing systematic bias). Group sizes were devised based on previous pilot studies using a minimal numbers approach of n = 3 tumours per time-point (6 time-points per dose level). […] Tumour size was measured twice weekly in two dimensions using a caliper, and the volume expressed in mm^3 using the formula: V = 0.5 (a × b^2), where a and b are the long and short diameters of the tumour, respectively.

The next data set in a line: LogD7.4 assay. In kind it is physicochemical. The following applies: octanol/PBS buffer; octanol/PBS pH 7.4. The procedure:
Compounds (100 µM) were shaken at 300 rpm at room temperature for 4 h in a biphasic system of octanol and PBS buffer pH 7.4 in a 96-well plate in triplicate. The relative drug concentration in each phase was then determined by the peak area measurement from LC-UV analysis on an Agilent 1260 chromatography instrument (UV detection at 254 nm and 220 nm). LogD is calculated as follows: LogD = Log[peak area of compound in octanol x injection volume of buffer phase/peak area of compound in buffer x injection volume of octanol phase].

The test system of data set [5] is pGSK3β in PC3 prostate cancer cells. The experiment in a line: pGSK3β ELISA in PC3 cells. In kind it is cell-based. The note with it: for IC50: Homo sapiens, PC-3, PC3 cells, 24 h. Here is the method:
as §2

A short description of a further data set: Kinetic solubility assay. Format: physicochemical. The note with it: PBS pH 7.4, read-out: Kinetic solubility pH7.4. The procedure:
Compound solubility was tested in Dulbecco A PBS buffer at pH7.4 in Millipore MultiScreen Solubility Filter plates. Analysis was carried out on a Bioteck Synergy 4 plate reader (240–400 nm) and solubility quantified against a 5-point calibration curve.

Data set [6] can be described thus: In vitro microsomal stability, human. The following applies: pH 7.4; human liver microsomes; read-out: human LM CLint. Format: in vitro ADME. The procedure: as §1
Data set [7] can be described thus: In vitro proliferation assay (CellTiter-Glo), normal cell lines. In kind it is cell-based. The following applies: human, normal cell lines (4 of the 6 tested; lines not named); 4 of the 6 normal cell lines tested; read-out: cytotoxicity EC50, normal cell lines. The procedure: MCF-7, T47D, NCI-H460, HCT116, LNCaP, A431, PC3, PANC-1, A549, HT29M, SKOV-3, Du145, HMEC-1, Hs888Lu, Hela, MDA-MB-231 and SW480 cells were obtained from American Type Culture Collection (ATCC). A2780, PNT2, U251MG, HFFF2 and Fr2 cells were obtained from Public Health England European Collection of Authenticated Cell Cultures (Phe ECACC). InMyoFib and NHLF cells were acquired from Lonza. Cells were then incubated with increasing concentration of inhibitor (1 nM to 100 µM) for 72 h at 37 °C. Cell viability was determined using the CellTiter-Glo Luminescent Cell Viability Assay (Promega). IC50 values were derived as previously stated.
For orientation: In ATP-based viability assays light output follows the ATP content of the culture.

The target in a further data set is T1, AKT3 (Homo sapiens, UniProt Q9Y243).
T1 construct: purchased Signal Chem
The experiment in a line: AKT3 biochemical kinase assay (FP iMAP). The following applies: read-out: AKT IC50, AKT3. Here is the method:
(§3) Biochemical analysis was performed using kinases obtained from Millipore (AKT1, ∆AKT1, ∆AKT2, ∆AKT3) and Signal Chem (AKT2 and AKT3). […] (Molecular Devices) against the three isoforms of AKT and their PH domain null mutants. Compounds were dissolved in DMSO prior to screening at 14 point titration series in the range (50 µM–50 pM). Fluorescence polarisation was measured using a Biotek Synergy 4 Hybrid microplate reader. Percentage inhibition of kinase activity was calculated and IC50 values derived using non-linear regression on GraphPad Prism. Competition of ALM301 with ATP was determined using AKT1 under increasing ATP concentrations up to 1000 µM.

The next data set concerns the target T2, AKT2 (Homo sapiens, UniProt P31751).
T2 construct: purchased Signal Chem
The experiment in a line: AKT2 biochemical kinase assay (FP iMAP). The note with it: read-out: AKT IC50, AKT2. The procedure:
as §3

In the next data set the target is T3, AKT1 (Homo sapiens, UniProt P31749).
T3 construct: purchased Millipore
The experiment in a line: AKT1 biochemical kinase assay (FP iMAP). The note with it: for IC50: read-out: AKT IC50, AKT1. Here is the method:
as §3

For another data set, the system named is MCF-7 cells. The note with it: ALM301 in combination with Tamoxifen. The procedure: A synergy screen, using ALM301 and combination partners in a matrix design, was conducted to identify compounds which are synergistic in combination with ALM301. Synergy was calculated using the median concentration effect method using Calcusyn software as previously described.

The next data set relates to MCF-7 xenografts. The experiment in a line: Efficacy study in MCF-7 breast cancer xenograft model. Format: in vivo. The following applies: MCF-7 xenograft, tamoxifen alone 5 mg/kg q.d. p.o. The procedure: For efficacy in MCF-7 xenografts, 150 SCID female mice aged 6–8 weeks and weighing approximately 18–22 g were implanted with 1 × 10^7 MCF-7 tumour cells (ATCC) subcutaneously in the right flank. […] Once mean tumour size reached approximately 150 mm^3, mice were randomised to either control or treatment groups (n = 10/group) using a randomised block approach. Groups sizes were devised based on past experience of the provider. […] Tumour size was measured twice weekly in two dimensions using a caliper, and the volume expressed in mm^3 using the formula: V = 0.5 (a x b^2), where a and b are the long and short diameters of the tumour, respectively.

[8] abbreviates: PBS buffer, pH 7.4, aqueous buffer, kinetic from dmso stock.

T3 sequence (P31749 whole entry): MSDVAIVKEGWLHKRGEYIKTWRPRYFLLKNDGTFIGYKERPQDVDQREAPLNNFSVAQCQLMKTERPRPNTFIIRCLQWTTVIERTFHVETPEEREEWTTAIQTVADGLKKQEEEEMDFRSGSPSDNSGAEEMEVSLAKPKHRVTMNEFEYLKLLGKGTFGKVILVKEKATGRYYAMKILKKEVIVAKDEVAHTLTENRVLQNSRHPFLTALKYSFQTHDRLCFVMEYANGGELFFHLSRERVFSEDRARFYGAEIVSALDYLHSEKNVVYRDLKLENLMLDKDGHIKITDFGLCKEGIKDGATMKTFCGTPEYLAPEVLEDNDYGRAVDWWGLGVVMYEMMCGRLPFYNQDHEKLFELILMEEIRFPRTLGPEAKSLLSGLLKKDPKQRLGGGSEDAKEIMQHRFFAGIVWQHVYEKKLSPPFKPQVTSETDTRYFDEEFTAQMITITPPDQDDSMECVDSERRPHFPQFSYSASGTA
T2 sequence (P31751 whole entry): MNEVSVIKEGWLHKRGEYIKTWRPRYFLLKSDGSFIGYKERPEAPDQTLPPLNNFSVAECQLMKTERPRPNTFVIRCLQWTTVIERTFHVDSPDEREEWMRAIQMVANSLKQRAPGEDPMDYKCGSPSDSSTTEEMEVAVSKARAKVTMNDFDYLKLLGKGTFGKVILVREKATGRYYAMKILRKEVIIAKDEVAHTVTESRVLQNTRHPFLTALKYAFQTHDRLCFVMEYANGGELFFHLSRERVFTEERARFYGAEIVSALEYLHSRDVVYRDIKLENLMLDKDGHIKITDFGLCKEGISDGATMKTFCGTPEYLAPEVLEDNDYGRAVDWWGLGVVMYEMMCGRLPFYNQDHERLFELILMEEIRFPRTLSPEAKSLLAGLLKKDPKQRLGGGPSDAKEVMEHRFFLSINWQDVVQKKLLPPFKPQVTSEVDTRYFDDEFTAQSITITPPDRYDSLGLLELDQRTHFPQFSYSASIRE
T1 sequence (Q9Y243 whole entry): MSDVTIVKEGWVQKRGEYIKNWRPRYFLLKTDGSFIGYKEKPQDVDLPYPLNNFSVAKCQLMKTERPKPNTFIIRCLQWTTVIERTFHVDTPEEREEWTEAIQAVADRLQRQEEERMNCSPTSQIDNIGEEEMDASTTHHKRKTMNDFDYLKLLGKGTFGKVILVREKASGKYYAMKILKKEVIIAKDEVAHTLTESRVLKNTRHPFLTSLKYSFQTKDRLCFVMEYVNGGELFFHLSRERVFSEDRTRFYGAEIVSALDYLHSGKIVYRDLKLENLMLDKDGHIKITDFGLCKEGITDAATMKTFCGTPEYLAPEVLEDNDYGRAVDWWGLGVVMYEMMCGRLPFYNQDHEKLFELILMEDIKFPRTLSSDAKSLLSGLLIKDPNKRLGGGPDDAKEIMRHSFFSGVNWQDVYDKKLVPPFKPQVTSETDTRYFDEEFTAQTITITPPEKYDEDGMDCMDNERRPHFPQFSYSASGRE
CYP 2C9, sequence (P11712 whole entry): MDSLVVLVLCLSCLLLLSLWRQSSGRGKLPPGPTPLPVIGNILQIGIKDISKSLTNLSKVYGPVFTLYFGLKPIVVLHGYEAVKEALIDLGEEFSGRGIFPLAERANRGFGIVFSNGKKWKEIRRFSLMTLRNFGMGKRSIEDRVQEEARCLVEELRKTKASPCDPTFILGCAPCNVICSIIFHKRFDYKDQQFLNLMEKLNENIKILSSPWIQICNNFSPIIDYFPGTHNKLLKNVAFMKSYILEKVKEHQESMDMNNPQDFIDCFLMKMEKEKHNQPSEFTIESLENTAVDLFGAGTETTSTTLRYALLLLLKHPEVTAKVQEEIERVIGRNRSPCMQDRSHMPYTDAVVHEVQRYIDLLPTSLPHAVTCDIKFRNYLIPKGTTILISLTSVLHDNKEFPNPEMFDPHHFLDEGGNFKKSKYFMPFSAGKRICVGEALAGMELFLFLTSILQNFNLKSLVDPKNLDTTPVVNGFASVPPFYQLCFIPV

On to `NC1(c2ccc(-c3nc4ccn5c(=O)[nH]nc5c4cc3-c3ccccc3)cc2)CCC1` [MK-2206, reference compound], for which the IC50 (in general, the concentration that inhibits the measured activity by half) stood at 19000 nM against CYP 2C9 and 120 nM in data set [5]. Also, in data set [1] (Sprague-Dawley, rat, plasma, iv, 1 mg/kg i.v., read-out: Rat PK CL), the clearance worked out at 24 mL/min/kg. Also, in [1] (Sprague-Dawley, rat, plasma, iv, 1 mg/kg i.v., read-out: Rat PK Vd), the Vd – broadly, the apparent volume that relates the amount in the body to the concentration in plasma or blood – came out at 12 L/kg. Moreover, in data set [1] (1 mg/kg i.v. and 5 mg/kg p.o., AUC 0-∞), the “Rat PK F” value stood at 12%. Besides, the microsomal CLint at 1 µM in data set [2] was 13 µL/min/mg; in data set [6], 20 µL/min/mg. Moreover, in data set [3], the EC50 (usually the concentration needed to bring the measured effect to its halfway point) was determined as 2550 nM. Also, the “pAKT^S473 in tumours” value in data set [4] is “incomplete inhibition”. In addition, the logD (commonly lipophilicity at a set pH, counting ionised and neutral species) at 4 h in “LogD7.4 assay” is 2.4. For the same molecule, the solubility (kinetic) (commonly solubility judged after dilution from a stock solution rather than from solid) in “Kinetic solubility assay” (setting [8]) is 190 µM. In addition, the EC50 at 72 h in [7] is less than 20000 nM.
Take `NC1(c2ccc(-c3nc4c(cc3-c3ccccc3)NC(=O)CO4)cc2)CCC1` [compound 1]: the IC50 at AKT3 came out at 6100 nM; on AKT2, 3300 nM; at AKT1 it was 2500 nM; in [5], 3000 nM. For the same molecule, the “AKT1 ligand efficiency (LE)” value on AKT1 is recorded as 0.28. The solubility (kinetic) in “Kinetic solubility assay” (setting [8]) stood at 206 µM.
Take `CN1C(=O)COc2nc(-c3ccc(C4(N)CCC4)cc3)c(-c3ccccc3)cc21` [compound 2]: the IC50 was 5600 nM at AKT3, 400 nM at AKT2, 100 nM on AKT1 and 100 nM in [5]. Also, the “AKT1 ligand efficiency (LE)” value on AKT1 is 0.34. The “potency improvement in pGSK3β decrease compared with des-N-methyl analogue 1” value in data set [5] (PC3 prostate cancer cells) is “ca. 30 fold”. The values for the solubility (kinetic) in the data set “Kinetic solubility assay” (setting [8]) and in “Kinetic solubility assay” were more than 190 µM and 191 µM, respectively.
As for `CC/C(=C(\c1ccccc1)c1ccc(OCCN(C)C)cc1)c1ccccc1` [tamoxifen], in the data set on MCF-7 cells, the “combination effect at ED50” value was “Synergy”, the “combination effect at ED75” value is reported as “Synergy” and the “combination effect at ED90” value is reported as “Strong Synergy”. In the data set on MCF-7 xenografts, this molecule had a tumour regression of 24%.
